This is an account of results in patent US11504349B2, “Composition for preventing or treating TNF-related diseases, containing novel derivative as active ingredient, and method for inhibiting TNF activity by using same” (ILAB, priority 2017, dated 2022).

Bounds are passed on as bounds.

One data set addresses etanercept (Homo sapiens, UniProt P20333). Briefly: SPR binding to etanercept. The conditions noted are these: FIG. 2c.
The subject of the next data set is BALB/c mice. Nature of the data set: In vivo TNF neutralization assay (TNF/D-galactosamine-induced lethality). On the set-up: species or system mouse. As to conditions: 3.3, 16.5 mpk PO 30 minutes before challenge; 24 hours; concentration-dependent. The procedure:
Treatment with TNF and a sensitizer D-galactosamine in an in vivo mouse model leads to death from acute liver failure. Thus, the compound of Example 61 (3.3 mpk or 16.5 mpk) was orally administered to BALB/c mice, and after 30 minutes, the mice were IP treated with the mixture of D-galactosamine (21 mg/mouse) and TNF (0.3 μg/mouse). Survival rates were observed and recorded every 3 hours up to 24 hours, and statistically analyzed by log-rank (Mantel-Cox) test using Prism 6 (GraphPad) (N=13/group, **P<0.005, ***P<0.001). mpk, mg/kg). This confirmed that the in vivo neutralization activity of the compounds binding to TNF in a TNF-induced lethality model.

The next data set deals with T1, biotinylated TNF (Homo sapiens, UniProt P01375).
T1 construct: purchased R&D Systems NFTAO
T1 sequence (P01375 77-233 limits assumed): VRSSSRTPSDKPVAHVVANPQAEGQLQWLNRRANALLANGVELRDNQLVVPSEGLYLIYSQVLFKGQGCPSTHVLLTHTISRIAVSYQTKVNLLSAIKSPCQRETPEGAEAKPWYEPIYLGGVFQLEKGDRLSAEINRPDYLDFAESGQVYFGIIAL
Briefly: Flow cytometry: binding of biotinylated TNF to Raw 264.7 cells. It counts as cell-based, mouse. As to conditions: compound 800, 200, 5 μM, FACS, FIG. 3a. The procedure:
First, macrophage Raw 264.7 cells were prepared (4×10^6 cells/ml), and the biotinylated TNF alone or in combination with the 4-benzopyranone derivative compound (800, 200, 5 μM) was added to the cells and reacted (30 min, 4° C.). 10 μl of avidin-FITC reagent was then added and reacted in the dark (30 min, 4° C.). After washing with RDF1 buffer, FACS analysis was carried out (BD Canto). Human TNF-alpha Biotinylated Fluorokine Flow Cytometry Kit (Cat #: NFTAO) of R&D Systems was used in the experiment.

Data set [1] is described as follows: Cytotoxicity (CC50) in LM cells, MTT assay. Format: cell-based. The conditions noted are these: mouse, LM cells (mouse fibroblasts); 50% cytotoxic concentration. The procedure: First, the addition of recombinant TNF to mouse fibroblast LM cells induces cell death, and thus, by using the same, the TNF-neutralization bioassay was constructed. In other words, LM cells were pretreated with TNF (20 ng/ml) and the compounds synthesized in the above examples at various concentrations (5×10^4 cells/well), and a sensitizer actinomycin D ([…]) was added, and cultured in a CO2 incubator for 24 hours, and then the MTT assay was carried out. At this time, 10 μl of MTT (5 mg/ml stock) was added, reacted for 4 hours, and then dissolved in DMSO to measure the absorbance at 570 nm. First, the TNF cell death inhibition/neutralization action of TNF-target expected compounds at single concentration (50 or 10 μM) was measured. Second, IC50 values were determined by treating with the compounds having an excellent effect at different concentrations. The % inhibition of TNF was calculated using the following formula: % inhibition of TNF=(OD value of a group treated with TNF and compound−OD value of TNF treated group/(OD value of TNF untreated group−OD value of TNF treated group)×100.
IC50 values were statistically analyzed using Prism 6 (GraphPad) (IC50: 50% inhibitory concentration, CC50: 50% cytotoxic concentration).

The test system of another data set is DBA/1 mice. Nature of the data set: Therapeutic effect on rheumatoid arthritis, CIA mouse model. It counts as in vivo. The procedure: The CIA mouse model is a model in which arthritis is induced by collagen in DBA/1 mice. Thus, a 1:1 mixture of collagen type 2 and CFA was intradermally (ID) injected into the base of the tail of 8-week old DBA/1 mice. Two weeks after the primary immunization, a 1:1 mixture of collagen type 2 and IFA was intradermally (ID) injected into the base of the tail. After the second immunization, the pathology was measured twice a week, and the groups were divided equally so that the mean of the pathology of each group was 4 points. From Day 35 after the primary immunization, etanercept (4.5 mpk), adalimumab (1.2 mpk), the compound of Example 61 (25 mpk, 50 mpk, or 100 mpk) were orally administered three times a week, and the pathology was measured and recorded. The pathology score was measured as 1=inflammation and swelling of one toe, 2=inflammation of one or more toes or weak swelling of the whole sole of the foot, 3=severe swelling of the whole sole of the foot and swelling of ankle, 4=very severe inflammation and swelling of the whole foot or the bending and stiffness of foot (N=7 to 9/group, *P<0.01, **P<0.005, ***P<0.001).

For another data set, the target named is TNF-etanercept binding (Homo sapiens, UniProt P01375). Nature of the data set: SPR competition: inhibition of TNF-etanercept binding. As to conditions: etanercept alone vs with compound, FIG. 2e. The procedure: The competition of binding of TNF-inhibiting biopharmaceutical etanercept and the derivative compounds to TNF was measured by SPR assay. Based on the results of pH scouting (10 mM acetate buffer, pH 4.0, 4.5, 5.0, and 5.5), the appropriate buffer pH was determined, and then the recombinant TNF was immobilized on the CM5 chip (4000-5000 RU). In order to correct an effect of DMSO, a solvent correction standard was then prepared, and DMSO was added to the PBST buffer (1×PBS, pH 7.4, 0.05% Tween 20, 0.01% Triton X-100, 5% DMSO) in an amount of 5%. Then, Etanercept alone or in combination with the compounds was flowed into the chip (20 μl/min, 300 s) and dissolved (700 s), and the results of sensorgram were analyzed by a dedicated program. […] At this time, the running buffer was PBST buffer, the regeneration buffer was 10 mM glycine (pH 2.5), and the instrument was Biacore T200 (GE).
Chain of TNF-etanercept binding (P01375 77-233 limits assumed): as above

The target in data set [2] is T2, TNF (Homo sapiens, UniProt P01375). Nature of the data set: SPR (Biacore T200) direct binding to immobilized TNF. The conditions noted are these: TNF immobilized on CM5 chip, read-out: binding affinity (KD). How it is done:
The binding kinetics of TNF and 4-benzopyranone derivative compounds was measured by Surface Plasmon Resonance (SPR) method. First, based on the results of pH scouting (10 mM acetate buffer, pH 4.0, 4.5, 5.0, and 5.5), the appropriate buffer pH was determined, and then the recombinant TNF was immobilized on the CM5 chip (4000-5000 RU). In order to correct an effect of DMSO, a solvent correction standard was then prepared, and DMSO was added to the HBS-EP+ buffer (GE) in an amount of 5%. Then, the 4-benzopyranone derivative compounds were prepared depending on concentration, flowed into the chip (20 μl/min, 500 s), and dissolved (500 s), and the results of sensorgram were analyzed by a dedicated program to determine the affinity value (KD). At this time, the running buffer was HBS-EP+ buffer (GE), the regeneration buffer was 10 mM glycine (pH 2.5), and Biacore T200 (GE) was used as an analyzer.

Data set [3] concerns the target T2, TNF. Briefly: TNF-neutralization bioassay: TNF-induced cell death of LM cells (MTT). Format: cell-based. The method in brief: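 Mouse fibroblast LM cells (5×10^4 cells/well) treated with TNF (20 ng/ml), compound and actinomycin D sensitizer for 24 h. Viability by MTT (4 h), absorbance at 570 nm. % TNF inhibition from OD relative to TNF-treated and untreated groups; IC50 and CC50 by Prism.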

T2 sequence (P01375 77-233 limits assumed): as above
Chain of etanercept (P20333 with tags, fused parts or gaps limits assumed): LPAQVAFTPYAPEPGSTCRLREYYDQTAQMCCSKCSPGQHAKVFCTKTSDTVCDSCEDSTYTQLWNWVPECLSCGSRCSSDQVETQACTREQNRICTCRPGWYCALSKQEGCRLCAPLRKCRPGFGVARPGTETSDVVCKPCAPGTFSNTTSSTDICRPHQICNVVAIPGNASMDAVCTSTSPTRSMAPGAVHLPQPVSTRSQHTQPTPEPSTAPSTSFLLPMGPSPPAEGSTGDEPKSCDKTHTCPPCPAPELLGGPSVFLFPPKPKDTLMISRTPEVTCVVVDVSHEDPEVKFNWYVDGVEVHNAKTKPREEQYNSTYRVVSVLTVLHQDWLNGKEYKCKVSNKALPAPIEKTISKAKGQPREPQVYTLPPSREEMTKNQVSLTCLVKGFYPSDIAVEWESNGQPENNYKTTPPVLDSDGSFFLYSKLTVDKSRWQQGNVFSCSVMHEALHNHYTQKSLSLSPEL

Regarding `O=C(O)c1c(-c2cc(F)ccc2F)oc2cc(Cl)ccc2c1=O` [Example 61, 2-(2,5-difluorophenyl)-3-carboxy-7-chloro-(4H)-4-benzopyranone], the binding to etanercept result at etanercept is “did not bind to etanercept”. The “death of mice due to acute hepatotoxicity induced by D-galactosamine and TNF” value in the data set with BALB/c mice is given as “inhibited”. For the same compound, the “inhibitory activity against TNF-cell binding” value on biotinylated TNF was “decreased the target cell binding of TNF to the basal level in a concentration-dependent manner”. This compound also displayed a CC50 at 24 h in data set [1] of more than 50000 nM. Moreover, the “therapeutic effect on rheumatoid arthritis (pathology score)” value with DBA/1 mice (25, 50 and 100 mpk PO three times a week, vs negative control) was “remarkable therapeutic effect”. In the data set with DBA/1 mice (25 mpk), the “effect in comparison with etanercept” value is listed as “non-inferior effect” and the “efficacy in comparison with tofacitinib (25 mpk)” value is recorded as “considerably similar efficacy”. Moreover, the “inhibition of TNF-etanercept binding” value on TNF-etanercept binding is “significantly inhibited the TNF-etanercept binding”. On TNF [2], the Kd is 1440 nM. The compound further displayed an inhibition at 50 µM on TNF [3] (compound 50 μM, TNF 20 ng/ml, actinomycin D, LM cells, 24 hours) of 95.7%. The compound further showed an IC50 at TNF [3] (inhibition of TNF-induced LM cell death) of 1800 nM.
